Reference: PMC9965906, “Discovery and Development Strategies for SARS-CoV-2 NSP3 Macrodomain Inhibitors” (Pathogens, 2023)
Values joined by “and” are separate entries in the source; they are usually repeats but may differ in a detail not shown here. Equal values may be shown once. Read-outs that look alike come from different tables or passages of the source.

How the values were obtained:
NSP3 Mac1 [1] = conditions: recognition by NSP3 Mac1; cited from earlier work
NSP3 Mac1 [2] = test system: NSP3 Mac1; design: method as in PMID 35598780; conditions: similar set-up using the peptide, AlphaScreen; cited from earlier work
MacroD1 = conditions: MacroD1, AlphaScreen-based assay format; cited from earlier work
SARS-CoV-2 NSP3 Mac1 = SARS-CoV-2 NSP3 Mac1 (Severe acute respiratory syndrome coronavirus 2, UniProt P0DTD1); test: biochemical; format: binding; conditions: for inhibition at 125 µM: read-out: Inhibition at top concentration of 125 µM (%); for IC50 in µM / IC50: 8-point 1:1 dilution; for IC50: read-out: IC50; for inhibition at 50 µM / NSP3 Mac1 inhibition at 50 µM (%): FDA-approved compound library primary screen, single shot
[3] = MIDAS hit compounds and analogues
[4] = MIDAS hit compounds and analogues, top concentration 125 µM, duplicate
[5] = BioAscent virtual screening hit compounds, duplicate

Q: With Nc1ncnc2c1ncn2[C@@H]1O[C@H](COP(=O)(O)OP(=O)(O)OC[C@H]2OC(O)[C@H](O)[C@@H]2O)[C@@H](O)[C@H]1O (some centres unmarked) [ADP-ribose] as the molecule, how does the Kd (NSP3 Mac1 [1]) read?
A: 13 µM

Q: What about the IC50 (NSP3 Mac1 [2]) of the same molecule?
A: 1.5 µM

Q: With C[CH2][Hg][S]c1ccccc1C(=O)[O-].[Na+] [Thimerosal, reference compound] as the molecule, how does the IC50 (MacroD1) read?
A: 5.2 µM

Q: What does the source list for CCn1ncc2c(C(=O)Nc3ncc(C)s3)cc(-c3cccs3)nc21 [IAL-MD0026, CCN1N=CC=2C(=CC(=NC12)C3=CC=CS3)C(=O)NC4=NC=C(C)S4]?
A: inhibition at 125 µM (SARS-CoV-2 NSP3 Mac1; [3]): 11.1%; IC50 in µM (SARS-CoV-2 NSP3 Mac1; [4]): Not measurable

Q: With CC(CNC(=O)c1cc(-c2cccs2)nc2c1cnn2C(C)C)N1CCCCC1 (centres unmarked) [IAL-MD0108, CC(C)N1N=CC=2C(=CC(=NC12)C3=CC=CS3)C(=O)NCC(C)N4CCCCC4] as the molecule, how does the inhibition at 125 µM (SARS-CoV-2 NSP3 Mac1; [3]) read?
A: 60.5%

Q: What about the IC50 (SARS-CoV-2 NSP3 Mac1; [4]) of the same molecule?
A: 68 µM and 67.8 µM

Q: For CCN1C(=O)c2cccc3c(S(=O)(=O)O)ccc1c23 [BCC0032304, CCN1C(=O)c2cccc3c(S(=O)(=O)O)ccc1c23], which inhibition at 25 µM (SARS-CoV-2 NSP3 Mac1; [5]) is on record?
A: 36.4%

Q: Which results are given for COc1ncccc1C(=O)N1CCC(c2c[nH]c3ncccc23)CC1 [IAL-MD0084, COC=1N=CC=CC1C(=O)N2CCC(CC2)C3=CNC=4N=CC=CC34]?
A: inhibition at 125 µM (SARS-CoV-2 NSP3 Mac1; [3]): 13.2%; IC50 in µM (SARS-CoV-2 NSP3 Mac1; [4]): Not measurable

Q: What does the source list for COc1ccc(NC(=O)c2cc(-c3ccc(C)cc3)nc3onc(C)c23)cc1 [IAL-MD0037, COC=1C=CC(NC(=O)C=2C=C(N=C3ON=C(C)C23)C=4C=CC(C)=CC4)=CC1]?
A: inhibition at 125 µM (SARS-CoV-2 NSP3 Mac1; [3]): 9.3%; IC50 in µM (SARS-CoV-2 NSP3 Mac1; [4]): Not measurable

Q: For CC(=O)c1ccc(-c2ccc(N)cc2)s1 [IAL-MD0305, CC(=O)c1ccc(-c2ccc(N)cc2)s1], which inhibition at 187 µM (SARS-CoV-2 NSP3 Mac1; BioAscent hit compounds, 187 µM, read-out: Inhibition at top screening concentration of 187 µM) is on record?
A: 63.1%

Q: And the Hill slope (SARS-CoV-2 NSP3 Mac1; BioAscent hit compounds, confirmatory IC50 curves)?
A: 0.6

Q: What about the IC50 (SARS-CoV-2 NSP3 Mac1; BioAscent hit compounds, top concentration 187 µM, duplicate) of the same molecule?
A: 28 µM

Q: And the inhibition at 25 µM (SARS-CoV-2 NSP3 Mac1; [5])?
A: 56.2%

Q: For CC(C)n1ncc2c(C(=O)NCc3cccs3)cc(-c3ccccc3)nc21 [IAL-MD0018, CC(C)N1N=CC=2C(=CC(=NC12)C=3C=CC=CC3)C(=O)NCC4=CC=CS4], which “Inhibition at top concentration of 125 µM (%)” value (SARS-CoV-2 NSP3 Mac1; [3]) is on record?
A: Not measurable

Q: And the “IC50 in µM” value (SARS-CoV-2 NSP3 Mac1; [4])?
A: Not measurable

Q: With Cn1ccc2c(-c3cc(C(=O)N4CCCC4)ccn3)ccnc21 [IAL-MD0139, O=C(C1=CC(C2=C3C(N(C)C=C3)=NC=C2)=NC=C1)N4CCCC4] as the molecule, how does the inhibition at 125 µM (SARS-CoV-2 NSP3 Mac1; [3]) read?
A: 21.7%

Q: What about the “IC50 in µM” value (SARS-CoV-2 NSP3 Mac1; [4]) of the same molecule?
A: Not measurable

Q: For CC(=O)N1CCN(C(=O)c2ccc(-c3ncnc4[nH]ccc34)cc2)CC1 [IAL-MD0143, O=C(C1=CC=C(C2=C3C(NC=C3)=NC=N2)C=C1)N4CCN(C(C)=O)CC4], which inhibition at 125 µM (SARS-CoV-2 NSP3 Mac1; [3]) is on record?
A: 71.9%

Q: And the IC50 (SARS-CoV-2 NSP3 Mac1; [4])?
A: 45 µM

Q: Which “inhibitory activity in FDA-approved library screen” value (SARS-CoV-2 NSP3 Mac1; primary screen at the set screening concentration) does the source give for COCCCOc1ccnc(C[S+]([O-])c2nc3ccccc3[nH]2)c1C (centres unmarked) [rabeprazole, reference compound] here?
A: could yet not measure any inhibitory activity

Q: With Cc1cccn2c(=O)c3cc(C(=O)O)n(C)c3nc12 [BCC0049478, Cc1cccn2c(=O)c3cc(C(=O)O)n(C)c3nc12] as the molecule, how does the inhibition at 25 µM (SARS-CoV-2 NSP3 Mac1; [5]) read?
A: 30.6%

Q: Which inhibition at 125 µM (SARS-CoV-2 NSP3 Mac1; [3]) does the source give for Cn1ccc2c(-c3ccc(C(=O)N4CCCC4)cn3)ccnc21 [IAL-MD0142, O=C(C1=CN=C(C2=C3C(N(C)C=C3)=NC=C2)C=C1)N4CCCC4] here?
A: 37.9%

Q: What about the “IC50 in µM” value (SARS-CoV-2 NSP3 Mac1; [4]) of the same molecule?
A: Not measurable

Q: For Nc1nc(/C(=C/CC(=O)O)C(=O)N[C@@H]2C(=O)N3C(C(=O)O)=CCS[C@H]23)cs1 [Ceftibuten, reference compound], which inhibition at 50 µM (SARS-CoV-2 NSP3 Mac1) is on record?
A: 71.6%

Q: What does the source list for CCn1ncc2c(C(=O)N(C)CC(=O)NCc3ccco3)cc(-c3cccs3)nc21 [IAL-MD0062, CCN1N=CC=2C(=CC(=NC12)C3=CC=CS3)C(=O)N(C)CC(=O)NCC4=CC=CO4]?
A: inhibition at 125 µM (SARS-CoV-2 NSP3 Mac1; [3]): 42.2%; IC50 in µM (SARS-CoV-2 NSP3 Mac1; [4]): Not measurable

Q: Which “Inhibition at top concentration of 125 µM (%)” value (SARS-CoV-2 NSP3 Mac1; [3]) does the source give for CCn1ncc2c(C(=O)Nc3cccc(NC(C)=O)c3)cc(-c3ccccc3)nc21 [IAL-MD0025, CCN1N=CC=2C(=CC(=NC12)C=3C=CC=CC3)C(=O)NC=4C=CC=C(NC(=O)C)C4] here?
A: Not measurable

Q: And the “IC50 in µM” value (SARS-CoV-2 NSP3 Mac1; [4])?
A: Not measurable

Q: For CCOc1ccc2nc3cc(N)ccc3c(N)c2c1 [Ethacridine lactate, reference compound], which inhibition at 50 µM (SARS-CoV-2 NSP3 Mac1) is on record?
A: 49.3%

Q: For CC(=O)N1CCc2nc(N)c(C#N)c(-c3cccc(-c4ccco4)c3)c2C1 [ARUK4004310-001-001, CC(=O)N1CCc2nc(c(c(c2C1)-c1cccc(c1)-c1ccco1)C#N)N], which inhibition at 25 µM (SARS-CoV-2 NSP3 Mac1; MIDAS compound library primary screen) is on record?
A: 61%

Q: Which results are given for Candicidin [reference compound]?
A: NSP3 Mac1 inhibition at 50 µM (%) (SARS-CoV-2 NSP3 Mac1): 50.1%; NSP3 Mac1 inhibition at 50 µM (%) (SARS-CoV-2 NSP3 Mac1; listed as candicidin): 50%
